System: hearing loss associated with otosclerosis
Conditions: hearing loss patients; 2 mg strontium ranelate daily for 6 months; symptoms measured monthly
Procedure: Hearing Loss. Hearing loss patients generally experience progressive loss of hearing.
The following populations having the symptom stated are treated with a dosing schedule of 2 mg strontium ranelate daily for 6 months.
All symptoms will be measured monthly. All improvements will be recorded and assessed.

N#Cc1c(N(CC(=O)[O-])CC(=O)[O-])sc(C(=O)[O-])c1CC(=O)[O-].[Sr+2].[Sr+2] [strontium ranelate]
hearing (gains or cessation of the progression of hearing loss): some hearing gains

Reference: patent US20080090896A1, “Strontium-Based Treatment Of Otosclerosis” (priority 2006, published 2008)
